From patent US10040791B2, “Isoxazole derivative as mutant isocitrate dehydrogenase 1 inhibitor” (Daiichi Sankyo Company, Limited, priority 2014, dated 2018)
pIC50: −log10 of the molar value. Where a name gives a salt, the structure may show the parent alone. Read-outs that look alike come from different tables or passages of the source.

Legend:
IDH1R132C = IDH1R132C (Homo sapiens (Human), UniProt O75874, R132C); experiment: Inhibitory activity against IDH1R132C enzyme (NADPH detection, WST-8); format: biochemical; conditions: 10 nM, residual NADPH detected with WST-8, read-out: Test Example 1 IDH1 R132C IC50
[1] = system: HT-1080 cells expressing IDH1R132C; experiment: 2-HG production inhibitory activity using HT1080 cell; format: cell-based, human; conditions: 2-HG production, HT1080 cells, read-out: Test Example 3 IC50
Description: Then, 100 μL of growth medium B was added to each well, further 25 μL of a solution of each compound diluted to a predetermined concentration with growth medium B was added to each well, and the cells were incubated at 37° C. for 2 days under 5% CO2. […] Then, 150 μL of ultrapure water was further added to each well, and the mixture was stirred by pipetting and stored at −20° C.
The preserved solutions were thawed at room temperature.

[2] = system: HT1080 xenografted mice (IDH1R132C); experiment: 2-HG production inhibitory activity using HT1080 xenografted mice; format: in vivo, mouse; conditions: 2-HG production, HT1080 xenografted mice; for response vs control in vivo at 75 mg/kg: Mus musculus, HT-1080, po, 6 h, read-out: Test Example 5 Ratio (%)
Description: HT1080 xenografted mice having successfully engrafted tumors were given by oral gavage each compound at 75 mg/kg a total of three times twice a day. The compound was suspended in a vehicle solution at 7.5 mg/mL using a homogenizer. Then, the suspension was stored at −20° C., thawed immediately before the administration, and given to mice. A negative control group for the test was given a vehicle by oral gavage. The body weights of the mice were measured using an automatic balance for small animals. The dosing solution was administered at a dose of 10 mL/kg body weight.
6 hours after the final administration, each mouse was euthanized with carbon dioxide. A portion of a tumor was collected, and its weight was measured using an electronic balance. Then, the tumor was frozen on dry ice. To the frozen tumor, methanol was added in an amount of 14 times the tumor weight. The resulting tumor was homogenized with Beads shocker (Yasui Kikai Corp.) and then incubated for 15 minutes in a freezer at −20° C. After centrifugation at 15000 rpm at 4° C. for 15 minutes using a high-speed refrigerated microcentrifuge, 250 μL of methanol and 400 μL of ultrapure water were added to 150 μL of the obtained supernatant. The prepared samples were subjected to 2-HG measurement.

Sequence of IDH1R132C (O75874 whole entry R132C): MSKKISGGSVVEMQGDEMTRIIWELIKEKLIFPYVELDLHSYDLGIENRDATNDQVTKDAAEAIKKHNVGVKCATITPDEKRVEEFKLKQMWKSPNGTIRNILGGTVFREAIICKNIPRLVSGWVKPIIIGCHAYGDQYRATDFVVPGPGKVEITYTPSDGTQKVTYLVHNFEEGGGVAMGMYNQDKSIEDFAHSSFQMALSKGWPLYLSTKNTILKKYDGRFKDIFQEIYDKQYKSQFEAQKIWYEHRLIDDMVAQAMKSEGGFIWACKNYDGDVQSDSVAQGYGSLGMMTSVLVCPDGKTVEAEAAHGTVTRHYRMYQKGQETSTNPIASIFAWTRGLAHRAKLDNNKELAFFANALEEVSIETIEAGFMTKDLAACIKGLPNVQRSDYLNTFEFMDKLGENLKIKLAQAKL

| SMILES | pIC50 (IDH1R132C) | pIC50 ([1]; Homo sapiens, HT-1080) | response vs control in vivo at 75 mg/kg [2] [%] | pIC50 [1] | Test Example 5 Ratio (%) [2] [%] |
| --- | --- | --- | --- | --- | --- |
| Cc1cn(C(=O)c2c(-c3c(F)cccc3Cl)noc2C(C)(C)F)c2cccc(/C=C/C(=O)O)c12 [Example 52, (2E)-3-(1-{[3-(2-Chloro-6-fluorophenyl)-5-(2-fluoropropan-2-yl)-1,2-oxazol-4-yl]carbonyl}-3-methyl-1H-indol-4-yl)prop-2-enoic acid] | 6.87 | 6.58 | 71 |  |  |
| C=CC(=O)N1CC2(CC2)N(c2onc(-c3c(Cl)cccc3OC)c2C(=O)n2ccc3c(/C=C/C(=O)O)cccc32)C[C@H]1C [Example 158, (2E)-3-[1-({5-[(6R)7-Acryloyl-6-methyl-4,7-diazaspiro[2.5]oct-4-yl]-3-(2-chloro-6-methoxyphenyl)-1,2-oxazol-4-yl}carbonyl)-1H-indol-4-yl]prop-2-enoic acid] | 6.75 | 6.75 | 62 |  |  |
| C=CC(=O)N1CCN(c2onc(-c3c(Cl)cc(Cl)cc3Cl)c2C(=O)n2ccc3c(/C=C/C(=O)O)cccc32)CC1 [Example 143, (2E)-3-(1-{[5-(4-Acryloylpiperazin-1-yl)-3-(2,4,6-trichlorophenyl)-1,2-oxazol-4-yl]carbonyl}-1H-indol-4-yl)prop-2-enoic acid] | 6.82 | 6.83 | 60 |  |  |
| Cc1cn(C(=O)c2c(-c3c(Cl)cc(Cl)cc3Cl)noc2C2(C#N)CCC2)c2cccc(/C=C/C(=O)O)c12 [Example 93, (2E)-3-(1-{[5-(1-Cyanocyclobutyl)-3-(2,4,6-trichlorophenyl)-1,2-oxazol-4-yl]carbonyl}-3-methyl-1H-indol-4-yl)prop-2-enoic acid] |  | 7.38 | 119 |  |  |
| COC1(c2onc(-c3c(Cl)cc(Cl)cc3Cl)c2C(=O)n2ccc3c(/C=C/C(=O)O)cccc32)CCC1 [Example 74, (2E)-3-(1-{[5-(1-Methoxycyclobutyl)-3-(2,4,6-trichlorophenyl)-1,2-oxazol-4-yl]carbonyl}-1H-indol-4-yl)prop-2-enoic acid] | 6.76 | 6.93 | 20 |  |  |
| C=CC(=O)N1CCC(c2onc(-c3cc(F)c(Cl)cc3Cl)c2C(=O)n2cc3c4c(cccc42)/C(=C/C(=O)O)CC3)CC1 [Example 128] | 7.04 | 8.52 | 1 |  |  |
| CC(C)(C)c1onc(-c2c(Cl)cc(Cl)cc2Cl)c1C(=O)n1ccc2c(/C=C/C(=O)O)cccc21 [Example 22, (2E)-3-(1-{[5-(tert-Butyl)-3-(2,4,6-trichlorophenyl)-1,2-oxazol-4-yl]carbonyl}-1H-indol-4-yl)prop-2-enoic acid] | 6.72 | 6.96 | 13 |  |  |
| C#CC(=O)N1CCC(c2onc(-c3c(Cl)cc(Cl)cc3Cl)c2C(=O)n2ccc3c(/C=C/C(=O)O)cccc32)CC1 [Example 100] | 6.72 | 7.55 | 75 |  |  |
| C=CC(=O)N1CC2(CC2)N(c2onc(-c3c(Cl)cccc3Cl)c2C(=O)n2ccc3c(/C=C/C(=O)O)cccc32)C[C@H]1C [Example 155, (2E)-3-[1-({5-[(6R)7-Acryloyl-6-methyl-4,7-diazaspiro[2.5]oct-4-yl]-3-(2,6-dichlorophenyl)-1,2-oxazol-4-yl}carbonyl)-1H-indol-4-yl]prop-2-enoic acid] | 6.91 | 7.26 | 41 |  |  |
| CC1(c2onc(-c3c(Cl)cc(Cl)cc3Cl)c2C(=O)n2cc3c4c(cccc42)/C(=C/C(=O)O)CC3)CC(F)(F)C1 [Example 19] | 6.77 | 7.19 | 79 |  |  |
| C=CC(=O)N(C)C1(c2onc(-c3c(Cl)cc(Cl)cc3Cl)c2C(=O)n2cc(C)c3c(/C=C/C(=O)O)cccc32)CCC1 [Example 87, (2E)-3-(1-{[5-{1-[Acryloyl(methyl)amino]cyclobutyl}-3-(2,4,6-trichlorophenyl)-1,2-oxazol-4-yl]carbonyl}-3-methyl-1H-indol-4-yl)prop-2-enoic acid] | 6.84 | 7.15 | 68 |  |  |
| CC(C)(C)c1noc(-c2c(Cl)cc(Cl)cc2Cl)c1C(=O)n1ccc2c(/C=C/C(=O)O)cccc21 [Example 34, (2E)-3-(1-{[3-(tert-Butyl)-5-(2,4,6-trichlorophenyl)-1,2-oxazol-4-yl]carbonyl}-1H-indol-4-yl)prop-2-enoic acid] | 6.44 | 6.68 | 55 |  |  |
| CC(C)(F)c1onc(-c2c(Cl)cc(Cl)cc2Cl)c1C(=O)n1ccc2c(/C=C/C(=O)O)cccc21 [Example 36, (2E)-3-(1-{[5-(2-Fluoropropan-2-yl)-3-(2,4,6-trichlorophenyl)-1,2-oxazol-4-yl]carbonyl}-1H-indol-4-yl)prop-2-enoic acid] | 6.96 | 6.77 | 43 |  |  |
| Cc1cc(C)c(-c2noc(C(C)(C)F)c2C(=O)n2cc(C)c3c(/C=C/C(=O)O)cccc32)c(C)c1 [Example 60, (2E)-3-(1-{[5-(2-Fluoropropan-2-yl)-3-(2,4,6-trimethylphenyl)-1,2-oxazol-4-yl]carbonyl}-3-methyl-1H-indol-4-yl)prop-2-enoic acid] | 6.94 | 7.04 | 9 |  |  |
| C=CC(=O)N1CCC(c2onc(-c3c(Cl)cc(Cl)cc3Cl)c2C(=O)n2ncc3c(/C=C/C(=O)O)cccc32)CC1 [Example 118] | 6.20 | 7.01 | 87 |  |  |
| CC(C)(C)c1onc(-c2c(Cl)cc(Cl)cc2Cl)c1C(=O)n1ccc2c(/C=C/C(=O)O)ccc(F)c21 [Example 48] | 6.71 |  |  | 6.94 | 72 |
| C=CC(=O)N1CCC(c2onc(-c3c(Cl)cc(Cl)cc3Cl)c2C(=O)n2cc(C)c3c(/C=C/C(=O)O)cccc32)CC1 [Example 104] | 7.03 | 8.15 | 8 |  |  |
| Cn1cc(C(=O)c2c(-c3c(Cl)cc(Cl)cc3Cl)noc2C(C)(C)C)c2cccc(/C=C/C(=O)O)c21 [Example 164] |  | 6.48 | 89 |  |  |
| Cc1cn(C(=O)c2c(-c3ccc(Cl)cc3Cl)noc2C(C)(C)F)c2cccc(/C=C/C(=O)O)c12 [Example 173, (2E)-3-(1-{[3-(2,4-Dichlorophenyl)-5-(2-fluoropropan-2-yl)-1,2-oxazol-4-yl]carbonyl}-3-methyl-1H-indol-4-yl)prop-2-enoic acid tert-butylamine salt] |  |  |  |  | 2 |
| Cc1cn(C(=O)c2c(-c3ccc(Cl)cc3Cl)noc2C2(C)COC2)c2cccc(/C=C/C(=O)O)c12 [Example 78, (2E)-3-(1-{[3-(2,4-Dichlorophenyl)-5-(3-methyloxetan-3-yl)-1,2-oxazol-4-yl]carbonyl}-3-methyl-1H-indol-4-yl)prop-2-enoic acid] |  | 6.55 | 50 |  |  |
| Cc1cc(Cl)cc(C)c1-c1noc(C(C)(C)F)c1C(=O)n1cc(C)c2c(/C=C/C(=O)O)cccc21 [Example 171, (2E)-3-(1-{[3-(4-Chloro-2,6-dimethylphenyl)-5-(2-fluoropropan-2-yl)-1,2-oxazol-4-yl]carbonyl}-3-methyl-1H-indol-4-yl)prop-2-enoic acid tert-butylamine salt] |  |  |  |  | 22 |
| Cc1cn(C(=O)c2c(-c3c(F)cc(Cl)cc3F)noc2C(C)(C)F)c2cccc(/C=C/C(=O)O)c12 [Example 170, (2E)-3-(1-{[3-(4-Chloro-2,6-difluorophenyl)-5-(2-fluoropropan-2-yl)-1,2-oxazol-4-yl]carbonyl}-3-methyl-1H-indol-4-yl)prop-2-enoic acid tert-butylamine salt] |  |  |  |  | 35 |
| Cc1cn(C(=O)c2c(-c3c(Cl)cc(Cl)cc3Cl)noc2C(C)(C)F)c2cccc(/C=C/C(=O)O)c12 [Example 168, (2E)-3-(1-{[5-(2-Fluoropropan-2-yl)-3-(2,4,6-trichlorophenyl)-1,2-oxazol-4-yl]carbonyl}-3-methyl-1H-indol-4-yl)prop-2-enoic acid tert-butylamine salt] |  |  | 13 |  |  |
| Cc1cn(C(=O)c2c(-c3c(Cl)cc(Cl)cc3Cl)noc2C(F)(F)F)c2cccc(/C=C/C(=O)O)c12 [Example 61, (2E)-3-(3-Methyl-1-{[3-(2,4,6-trichlorophenyl)-5-(trifluoromethyl)-1,2-oxazol-4-yl]carbonyl}-1H-indol-4-yl)prop-2-enoic acid] |  | 6.47 | 63 |  |  |
